# Measurements as given in the supplement of paper PMC10307832.
# What was measured:
# Test in all cases: relative viability (nuclei count vs DMSO), 5 days (fraction); higher = more cells survive
# Everolimus + Phenformin = compound: CO[C@H]1C[C@@H]2CC[C@@H](C)[C@@](O)(O2)C(=O)C(=O)N2CCCC[C@H]2C(=O)O[C@H]([C@H](C)C[C@@H]2CC[C@@H](OCCO)[C@H](OC)C2)CC(=O)[C@H](C)/C=C(\C)[C@@H](O)[C@@H](OC)C(=O)[C@H](C)C[C@H](C)/C=C/C=C/C=C/1C [Everolimus] + N=C(N)NC(=N)NCCc1ccccc1 [Phenformin] (partner 250 µM)
# How it was run: (§1)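 Lung cancer cell lines in 1536-well plates got either a single drug or a fixed anchor-drug dose together with five library-drug doses (not always all listed) in √10 steps, by pin tool, on the day after seeding. Nuclei were counted after 5 days, and relative viability is the treated-to-vehicle ratio of nuclei counts. Values are medians of duplicate plates.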
# Everolimus + Dasatinib = compound: CO[C@H]1C[C@@H]2CC[C@@H](C)[C@@](O)(O2)C(=O)C(=O)N2CCCC[C@H]2C(=O)O[C@H]([C@H](C)C[C@@H]2CC[C@@H](OCCO)[C@H](OC)C2)CC(=O)[C@H](C)/C=C(\C)[C@@H](O)[C@@H](OC)C(=O)[C@H](C)C[C@H](C)/C=C/C=C/C=C/1C [Everolimus] + Cc1nc(Nc2ncc(C(=O)Nc3c(C)cccc3Cl)s2)cc(N2CCN(CCO)CC2)n1 [Dasatinib] (partner 0.075 µM)
# How it was run: as §1
# Everolimus + Tozasertib = compound: CO[C@H]1C[C@@H]2CC[C@@H](C)[C@@](O)(O2)C(=O)C(=O)N2CCCC[C@H]2C(=O)O[C@H]([C@H](C)C[C@@H]2CC[C@@H](OCCO)[C@H](OC)C2)CC(=O)[C@H](C)/C=C(\C)[C@@H](O)[C@@H](OC)C(=O)[C@H](C)C[C@H](C)/C=C/C=C/C=C/1C [Everolimus] + Cc1cc(Nc2cc(N3CCN(C)CC3)nc(Sc3ccc(NC(=O)C4CC4)cc3)n2)n[nH]1 [Tozasertib] (partner 0.1 µM)
# How it was run: as §1
# Everolimus + Foretinib = compound: CO[C@H]1C[C@@H]2CC[C@@H](C)[C@@](O)(O2)C(=O)C(=O)N2CCCC[C@H]2C(=O)O[C@H]([C@H](C)C[C@@H]2CC[C@@H](OCCO)[C@H](OC)C2)CC(=O)[C@H](C)/C=C(\C)[C@@H](O)[C@@H](OC)C(=O)[C@H](C)C[C@H](C)/C=C/C=C/C=C/1C [Everolimus] + COc1cc2c(Oc3ccc(NC(=O)C4(C(=O)Nc5ccc(F)cc5)CC4)cc3F)ccnc2cc1OCCCN1CCOCC1 [Foretinib] (partner 0.25 µM)
# How it was run: as §1
# Everolimus + OSI-027 = compound: CO[C@H]1C[C@@H]2CC[C@@H](C)[C@@](O)(O2)C(=O)C(=O)N2CCCC[C@H]2C(=O)O[C@H]([C@H](C)C[C@@H]2CC[C@@H](OCCO)[C@H](OC)C2)CC(=O)[C@H](C)/C=C(\C)[C@@H](O)[C@@H](OC)C(=O)[C@H](C)C[C@H](C)/C=C/C=C/C=C/1C [Everolimus] + COc1cccc2cc(-c3nc([C@H]4CC[C@H](C(=O)O)CC4)n4ncnc(N)c34)[nH]c12 [OSI-027] (partner 0.5 µM)
# How it was run: as §1
# Everolimus + Luminespib = compound: CO[C@H]1C[C@@H]2CC[C@@H](C)[C@@](O)(O2)C(=O)C(=O)N2CCCC[C@H]2C(=O)O[C@H]([C@H](C)C[C@@H]2CC[C@@H](OCCO)[C@H](OC)C2)CC(=O)[C@H](C)/C=C(\C)[C@@H](O)[C@@H](OC)C(=O)[C@H](C)C[C@H](C)/C=C/C=C/C=C/1C [Everolimus] + CCNC(=O)c1noc(-c2cc(C(C)C)c(O)cc2O)c1-c1ccc(CN2CCOCC2)cc1 [Luminespib] (partner 0.01 µM)
# How it was run: as §1
# Everolimus = compound: CO[C@H]1C[C@@H]2CC[C@@H](C)[C@@](O)(O2)C(=O)C(=O)N2CCCC[C@H]2C(=O)O[C@H]([C@H](C)C[C@@H]2CC[C@@H](OCCO)[C@H](OC)C2)CC(=O)[C@H](C)/C=C(\C)[C@@H](O)[C@@H](OC)C(=O)[C@H](C)C[C@H](C)/C=C/C=C/C=C/1C [Everolimus]
# How it was run: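 Following overnight incubation at 37 °C, lung cancer cell lines in 1536-well plates were pinned with five library-drug doses (not always all listed) in √10 steps on vehicle-anchored plates. The cells then spent 5 days without medium change before a combined fix, permeabilisation and Hoechst stain, 4× imaging and MetaXpress nuclear counts. Viability is the treated-to-vehicle ratio of nuclei, taken as the median across plates. Only plates with control CV below 25% and at least one doubling passed.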
cell line,measurement,setting,value
NCI-H1623,relative viability,Everolimus + Phenformin; first compound 0.01 µM,0.466
same,relative viability,Everolimus + Phenformin; first compound 0.03162 µM,0.622
same,relative viability,Everolimus + Phenformin; first compound 0.1 µM,0.444
same,relative viability,Everolimus + Phenformin; first compound 0.3162 µM,0.444
same,relative viability,Everolimus + Phenformin; first compound 1 µM,0.512
same,relative viability,Everolimus + Dasatinib; first compound 0.01 µM,0.388
same,relative viability,Everolimus + Dasatinib; first compound 0.03162 µM,0.566
same,relative viability,Everolimus + Dasatinib; first compound 0.1 µM,0.317
same,relative viability,Everolimus + Dasatinib; first compound 0.3162 µM,0.352
same,relative viability,Everolimus + Dasatinib; first compound 1 µM,0.382
same,relative viability,Everolimus + Tozasertib; first compound 0.01 µM,0.411
same,relative viability,Everolimus + Tozasertib; first compound 0.03162 µM,0.396
same,relative viability,Everolimus + Tozasertib; first compound 0.1 µM,0.39
same,relative viability,Everolimus + Tozasertib; first compound 0.3162 µM,0.381
same,relative viability,Everolimus + Tozasertib; first compound 1 µM,0.385
same,relative viability,Everolimus + Foretinib; first compound 0.01 µM,0.721
same,relative viability,Everolimus + Foretinib; first compound 0.03162 µM,0.831
same,relative viability,Everolimus + Foretinib; first compound 0.1 µM,0.53
same,relative viability,Everolimus + Foretinib; first compound 0.3162 µM,0.511
same,relative viability,Everolimus + Foretinib; first compound 1 µM,0.563
same,relative viability,Everolimus + OSI-027; first compound 0.01 µM,0.408
same,relative viability,Everolimus + OSI-027; first compound 0.03162 µM,0.395
same,relative viability,Everolimus + OSI-027; first compound 0.1 µM,0.362
same,relative viability,Everolimus + OSI-027; first compound 0.3162 µM,0.384
same,relative viability,Everolimus + OSI-027; first compound 1 µM,0.372
same,relative viability,Everolimus + Luminespib; first compound 0.01 µM,0.467
same,relative viability,Everolimus + Luminespib; first compound 0.03162 µM,0.336
same,relative viability,Everolimus + Luminespib; first compound 0.1 µM,0.307
same,relative viability,Everolimus + Luminespib; first compound 0.3162 µM,0.326
same,relative viability,Everolimus + Luminespib; first compound 1 µM,0.296
same,relative viability,Everolimus; 0.01 µM,0.773
same,relative viability,Everolimus; 0.03162 µM,0.622
same,relative viability,Everolimus; 0.1 µM,0.595
same,relative viability,Everolimus; 0.3162 µM,0.581
same,relative viability,Everolimus; 1 µM,0.514
